Laboratory results as given in patent US10477864B2, “Microbiocidal quinoline (thio)carboxamide derivatives” (priority 2016, dated 2019).

Legend:
[1] = tested on: Botryotinia fuckeliana (Botrytis cinerea); assay: Botryotinia fuckeliana (Botrytis cinerea) / liquid culture (gray mould); type: cell-based; conditions: 72 h, read-out: control of Botryotinia fuckeliana
[2] = tested on: Fusarium culmorum; assay: microbe, parasite or virus in culture; type: cell-based; conditions: read-out: control of Fusarium culmorum
[3] = tested on: Fusarium culmorum; assay: whole plant or invertebrate; type: in vivo; conditions: in Triticum aestivum, read-out: control of Fusarium culmorum
[4] = tested on: Glomerella lagenarium (Colletotrichum lagenarium); assay: Glomerella lagenarium (Colletotrichum lagenarium) / liquid culture (anthracnose); type: cell-based; conditions: Colletotrichum orbiculare; read-out: control of Glomerella lagenarium

CC(CCO)(Cc1ccccc1)NC(=O)c1cnc2c(F)cccc2c1 (stereo not drawn) [Compound E-119, N-(1-benzyl-3-hydroxy-1-methyl-propyl)-8-fluoro-quinoline-3-carboxamide]
≥ 80%: inhibition of growth at 200 ppm [1] | inhibition of growth at 200 ppm [2]

C[C@](Cc1ccccc1)(CC(F)(F)F)NC(=O)c1cnc2c(F)cccc2c1 [Compound F-11, N-[(1S)-1-benzyl-3,3,3-trifluoro-1-methyl-propyl]-8-fluoro-quinoline-3-carboxamide]
≥ 80%: inhibition of growth at 200 ppm [1] | inhibition of growth at 200 ppm [2] | pest or weed control at 200 ppm [3] | inhibition of growth at 200 ppm [4]

C=C(C)CC(C)(Cc1ccccc1)NC(=O)c1cc2cccc(F)c2nc1C (stereo not drawn) [Compound E-124, N-(1-benzyl-1,3-dimethyl-but-3-enyl)-8-fluoro-2-methyl-quinoline-3-carboxamide]
≥ 80%: inhibition of growth at 200 ppm [1] | inhibition of growth at 200 ppm [2]

Cc1ccc2cc(C(=O)NC(C)(Cc3ccccc3)CC(F)(F)F)cnc2c1 (stereo not drawn) [Compound E-79, N-(1-benzyl-3,3,3-trifluoro-1-methyl-propyl)-7-methyl-quinoline-3-carboxamide]
≥ 80%: inhibition of growth at 200 ppm [1] | inhibition of growth at 200 ppm [2] | pest or weed control at 200 ppm [3] | inhibition of growth at 200 ppm [4]

CC(Cc1ccccc1)(CC(F)(F)F)NC(=O)c1cnc2cccc(F)c2c1 (stereo not drawn) [Compound E-80, N-(1-benzyl-3,3,3-trifluoro-1-methyl-propyl)-5-fluoro-quinoline-3-carboxamide]
≥ 80%: inhibition of growth at 200 ppm [1] | inhibition of growth at 200 ppm [2] | pest or weed control at 200 ppm [3]

Cc1nc2c(F)cccc2cc1C(=O)NC(C)(Cc1ccccc1)CC(F)(F)F (stereo not drawn) [Compound E-89, N-(1-benzyl-3,3,3-trifluoro-1-methyl-propyl)-8-fluoro-2-methyl-quinoline-3-carboxamide]
≥ 80%: inhibition of growth at 200 ppm [1] | inhibition of growth at 200 ppm [2] | pest or weed control at 200 ppm [3] | inhibition of growth at 200 ppm [4]

Cc1ccc2cc(C(=O)NC(C)(Cc3ccccc3)CC(C)C)cnc2c1 (stereo not drawn) [Compound E-72, N-(1-benzyl-1,3-dimethyl-butyl)-7-methyl-quinoline-3-carboxamide]
≥ 80%: inhibition of growth at 200 ppm [1] | inhibition of growth at 200 ppm [2] | pest or weed control at 200 ppm [3]

Cc1ccc2ncc(C(=O)NC(C)(Cc3ccccc3)CC(F)(F)F)cc2c1 (stereo not drawn) [Compound E-77, N-(1-benzyl-3,3,3-trifluoro-1-methyl-propyl)-6-methyl-quinoline-3-carboxamide]
≥ 80%: inhibition of growth at 200 ppm [1] | inhibition of growth at 200 ppm [2] | pest or weed control at 200 ppm [3]

Cc1cccc2cc(C(=O)N[C@](C)(Cc3ccccc3)CC(F)(F)F)cnc12 [Compound F-28, N-[(1R)-1-benzyl-3,3,3-trifluoro-1-methyl-propyl]-8-methyl-quinoline-3-carboxamide]
≥ 80%: inhibition of growth at 200 ppm [1] | inhibition of growth at 200 ppm [2] | pest or weed control at 200 ppm [3] | inhibition of growth at 200 ppm [4]

Cc1nc2c(F)cccc2cc1C(=O)N[C@](C)(Cc1ccccc1)CC(F)(F)F [Compound F-34, N-[(1R)-1-benzyl-3,3,3-trifluoro-1-methyl-propyl]-8-fluoro-2-methyl-quinoline-3-carboxamide]
≥ 80%: inhibition of growth at 200 ppm [1] | inhibition of growth at 200 ppm [2] | inhibition of growth at 200 ppm [4]

CC(Cc1ccccc1)(CC(F)F)NC(=O)c1cnc2c(F)cccc2c1 (stereo not drawn) [Compound E-95, N-(1-benzyl-3,3-difluoro-1-methyl-propyl)-8-fluoro-quinoline-3-carboxamide]
≥ 80%: inhibition of growth at 200 ppm [1] | inhibition of growth at 200 ppm [2] | pest or weed control at 200 ppm [3] | inhibition of growth at 200 ppm [4]

CC(C)CC(C)(Cc1ccccc1)NC(=O)c1cnc2ccc(F)cc2c1 (stereo not drawn) [Compound E-73, N-(1-benzyl-1,3-dimethyl-butyl)-6-fluoro-quinoline-3-carboxamide]
≥ 80%: inhibition of growth at 200 ppm [1] | inhibition of growth at 200 ppm [2]

CC(C)C[C@](C)(Cc1ccccc1)NC(=O)c1cnc2c(F)c(F)ccc2c1 [Compound F-21, N-[(1R)-1-benzyl-1,3-dimethyl-butyl]-7,8-difluoro-quinoline-3-carboxamide]
≥ 80%: inhibition of growth at 200 ppm [1] | inhibition of growth at 200 ppm [2] | pest or weed control at 200 ppm [3] | inhibition of growth at 200 ppm [4]

CC(Cc1ccccc1)(CC(F)(F)F)NC(=O)c1cnc2ccc(Cl)cc2c1 (stereo not drawn) [Compound E-78, N-(1-benzyl-3,3,3-trifluoro-1-methyl-propyl)-6-chloro-quinoline-3-carboxamide]
≥ 80%: inhibition of growth at 200 ppm [2]

CC(C)C[C@@](C)(Cc1ccccc1)NC(=O)c1cnc2c(F)c(F)ccc2c1 [Compound F-22, N-[(1S)-1-benzyl-1,3-dimethyl-butyl]-7,8-difluoro-quinoline-3-carboxamide]
≥ 80%: inhibition of growth at 200 ppm [1] | inhibition of growth at 200 ppm [2] | inhibition of growth at 200 ppm [4]

CC(C)C[C@](C)(Cc1ccccc1)NC(=O)c1cnc2cc(F)ccc2c1 [Compound F-13, N-[(1R)-1-benzyl-1,3-dimethyl-butyl]-7-fluoro-quinoline-3-carboxamide]
≥ 80%: inhibition of growth at 200 ppm [1] | inhibition of growth at 200 ppm [2] | pest or weed control at 200 ppm [3] | inhibition of growth at 200 ppm [4]

CC(C)C[C@@](C)(Cc1ccccc1)NC(=O)c1cnc2cc(F)ccc2c1 [Compound F-14, N-[(1S)-1-benzyl-1,3-dimethyl-butyl]-7-fluoro-quinoline-3-carboxamide]
≥ 80%: inhibition of growth at 200 ppm [1] | inhibition of growth at 200 ppm [2] | pest or weed control at 200 ppm [3] | inhibition of growth at 200 ppm [4]

CCCC(Cc1ccccc1)(NC(=O)c1cnc2c(F)cccc2c1)C(F)(F)F (stereo not drawn) [Compound E-91, N-[1-benzyl-1-(trifluoromethyl)butyl]-8-fluoro-quinoline-3-carboxamide]
≥ 80%: inhibition of growth at 200 ppm [1] | inhibition of growth at 200 ppm [2] | pest or weed control at 200 ppm [3] | inhibition of growth at 200 ppm [4]

CC(C=O)(Cc1ccccc1)NC(=O)c1cnc2c(F)cccc2c1 (stereo not drawn) [Compound E-120, N-(1-benzyl-1-methyl-2-oxo-ethyl)-8-fluoro-quinoline-3-carboxamide]
≥ 80%: inhibition of growth at 200 ppm [2]

CC(Cc1ccccc1)(CC(F)(F)F)NC(=O)c1cnc2c(F)cccc2c1Cl (stereo not drawn) [Compound E-96, N-(1-benzyl-3,3,3-trifluoro-1-methyl-propyl)-4-chloro-8-fluoro-quinoline-3-carboxamide]
≥ 80%: inhibition of growth at 200 ppm [1] | inhibition of growth at 200 ppm [2] | pest or weed control at 200 ppm [3] | inhibition of growth at 200 ppm [4]

C[C@](Cc1ccccc1)(CC(F)(F)F)NC(=O)c1cnc2c(Cl)cccc2c1 [Compound F-35, N-[(1S)-1-benzyl-3,3,3-trifluoro-1-methyl-propyl]-8-chloro-quinoline-3-carboxamide]
≥ 80%: inhibition of growth at 200 ppm [1] | inhibition of growth at 200 ppm [2] | pest or weed control at 200 ppm [3] | inhibition of growth at 200 ppm [4]

Cc1ccc2ncc(C(=O)NC(C)(Cc3ccccc3)CC(C)C)cc2c1 (stereo not drawn) [Compound E-71, N-(1-benzyl-1,3-dimethyl-butyl)-6-methyl-quinoline-3-carboxamide]
≥ 80%: inhibition of growth at 200 ppm [1] | inhibition of growth at 200 ppm [2] | pest or weed control at 200 ppm [3]

Cc1c(C(=O)NC(C)(Cc2ccccc2)CC(C)C)cnc2c(C#N)cccc12 (stereo not drawn) [Compound E-109, N-(1-benzyl-1,3-dimethyl-butyl)-8-cyano-4-methyl-quinoline-3-carboxamide]
≥ 80%: inhibition of growth at 200 ppm [1] | inhibition of growth at 200 ppm [2] | pest or weed control at 200 ppm [3]

CC(C)CC(C)(Cc1ccccc1)NC(=O)c1cnc2cccc(F)c2c1 (stereo not drawn) [Compound E-74, N-(1-benzyl-1,3-dimethyl-butyl)-5-fluoro-quinoline-3-carboxamide]
≥ 80%: inhibition of growth at 200 ppm [1] | inhibition of growth at 200 ppm [2] | pest or weed control at 200 ppm [3]

CC(Cc1ccccc1)(CC(F)(F)F)NC(=O)c1cnc2ccc(F)cc2c1 (stereo not drawn) [Compound E-84, N-(1-benzyl-3,3,3-trifluoro-1-methyl-propyl)-6-fluoro-quinoline-3-carboxamide]
≥ 80%: inhibition of growth at 200 ppm [1] | inhibition of growth at 200 ppm [2] | pest or weed control at 200 ppm [3]

CC(C)CC(C)(Cc1ccccc1)NC(=O)c1cnc2ccc(O)cc2c1 (stereo not drawn) [Compound E-76, N-(1-benzyl-1,3-dimethyl-butyl)-6-hydroxy-quinoline-3-carboxamide]
≥ 80%: inhibition of growth at 200 ppm [1] | inhibition of growth at 200 ppm [2] | pest or weed control at 200 ppm [3]

COc1cccc2ncc(C(=O)NC(C)(Cc3ccccc3)CC(F)(F)F)cc12 (stereo not drawn) [Compound E-81, N-(1-benzyl-3,3,3-trifluoro-1-methyl-propyl)-5-methoxy-quinoline-3-carboxamide]
≥ 80%: inhibition of growth at 200 ppm [1] | inhibition of growth at 200 ppm [2] | pest or weed control at 200 ppm [3]

COc1cccc2ncc(C(=O)NC(C)(Cc3ccccc3)CC(C)C)cc12 (stereo not drawn) [Compound E-75, N-(1-benzyl-1,3-dimethyl-butyl)-5-methoxy-quinoline-3-carboxamide]
≥ 80%: inhibition of growth at 200 ppm [1] | inhibition of growth at 200 ppm [2] | pest or weed control at 200 ppm [3]

CC(C)(Cc1ccccc1)NC(=O)c1cnc2c(F)cccc2c1 [Compound E-11, N-(1,1-dimethyl-2-phenyl-ethyl)-8-fluoro-quinoline-3-carboxamide]
≥ 80%: inhibition of growth at 200 ppm [1] | inhibition of growth at 200 ppm [2] | pest or weed control at 200 ppm [3]

CC(Cc1ccccc1)(CC(F)(F)F)NC(=O)c1cnc2ccc(O)cc2c1 (stereo not drawn) [Compound E-82, N-(1-benzyl-3,3,3-trifluoro-1-methyl-propyl)-6-hydroxy-quinoline-3-carboxamide]
≥ 80%: inhibition of growth at 200 ppm [1] | inhibition of growth at 200 ppm [2] | pest or weed control at 200 ppm [3]

CC(C)CC(C)(Cc1ccccc1)NC(=O)c1cc2ccccc2[n+]([O-])c1 (stereo not drawn) [Compound E-41, N-(1-benzyl-1,3-dimethyl-butyl)-1-oxido-quinolin-1-ium-3-carboxamide]
≥ 80%: inhibition of growth at 200 ppm [1] | inhibition of growth at 200 ppm [2]
